Source: US20100120752A1, “MUSCARINIC AGONISTS TO TREAT IMPULSE CONTROL DISORDERS” (Solvay Pharmaceuticals, B.V., priority 2007, published 2010)

Legend:
Format in all cases: in vivo, rat
Male Wistar rats [1] = assay: 5-Choice Serial Reaction Time task, xanomeline or desmethylclozapine alone; conditions: for number of anticipatory responses / number of correct responses / number of fault responses / number of missed responses / percentage of correct responses / persevering responses / total number of responses: ±S.E.M.; for effect on number of anticipatory responses: at 10 mg/kg, table 2
Excerpt: (§1) Male Wistar rats weighing 330-450 g (Harlan, The Netherlands) were housed in pairs under a 12-h light/dark cycle (lights off at 7:00 a.m.) and had daily access to a limited amount of food that kept their body weight at approximately 85% of the free feeding weight. Water was available ad libitum. All procedures were in compliance with the European Communities Council Directive of Nov. 24, 1986 (86/609 EEC).
(§2) Standard 5-CSRT boxes from MED associates Inc. Georgia, Vt. US were used. The curved wall of the chamber contained five 1.6 cm2 holes, 2.2 cm deep, 2 cm above floor level. […] In every hole a yellow stimulus light was presented. A food dispenser was located at the opposite wall. The box was illuminated by a 28 Volt 100 mA house light. The 5-CSRT boxes were placed in sound attenuating cubicles. On-line control of the apparatus and data collection were performed by a MED-PC experimental apparatus programming system (Tatham, 1989), running on a Dell Optiplex GX1 PC.
(§3) Rats were first trained to collect reinforcement pellets from the food dispenser and to collect reinforcements that were placed in the 5 holes in order to habituate the animals to the 5-CSRT task apparatus. Next, training of the 5-CSRT task started. These sessions started by illumination of the light in one of the holes for 30 seconds (stimulus duration). A response by the rat into the illuminated hole or a response in that particular hole for a short period of time after the illumination (the limited hold 60 sec) was rewarded with the delivery of a food pellet, termination of the trial and a correct response was recorded. The light stimulus was presented in each of the holes 20 times during a session (total of 100 presentations), and the order of presentations was randomized. […] After termination of the trial a variable inter-trial interval was started (1, 3, 5, 7 or 9 sec) after which the next trial was started. Upon reaching a 75% correct performance level the duration of illumination of the light stimulus was reduced until a presentation of 0.5 sec (from 30 to 20, 10, 5, 2, 1, 0.9; 0.8; 0.7; 0.6; 0.5.) and a limited hold of 5 sec (in three steps from 30 to 20, 10 and 5 sec), was reached. (Robbins, 1993).
(§4) The following parameters were measured (Muir, 1996):
(§5) Accuracy: the percentage correct responses divided by the total responses made.
(§6) Errors of omission: the number of missed stimulus presentations.
(§7) Correct responses: the number of correct responses.
(§8) Fault responses: the number of responses in the wrong hole.
(§9) Anticipatory responses: the number of premature responses made preceding the presentation of the light stimulus.
(§10) Persevering responses: responses emitted after an incorrect or correct response.
Xanomeline, a mixed muscarine-M1 and muscarine-M4 agonist, and desmethylclozapine, a muscarinic-M1 agonist and muscarinic-M4 antagonist, were each tested in a Latin hexagon design, meaning that each rat received all test-dosages (0, 1, 3 and 10 mg/kg i.p.) in a random order.

[2] = test system: MK801 induced increase of anticipatory responses of rats; assay: 5-Choice Serial Reaction Time task, interaction studies against MK801; conditions: for effect on increase in anticipatory responses induced by MK801 / effect on increase in persevering responses induced by MK801: table 3
Excerpt: as §1, §2, §3, §4, §5, §6, §7, §8, §9, §10
Both xanomeline and desmethylclozapine were each tested in the same dose range against 0.05 mg/kg (s.c.) MK801, a dose shown to elicit unequivocal impulsive behavior (see Table 1).

Male Wistar rats [3] = assay: 5-Choice Serial Reaction Time task, MK801 alone; conditions: for number of anticipatory responses / number of correct responses / number of fault responses / number of missed responses / percentage of correct responses / persevering responses / total number of responses: ±S.E.M.
Excerpt: as §1, §2, §3, §4, §5, §6, §7, §8, §9, §10
MK801 was tested in a Latin hexagon design, meaning that each rat received all test dosages (0, 0.01, 0.025 and 0.05 mg/kg s.c.) in a random order.

[4] = 1 mg/kg against 0.05 mg/kg (s.c.) MK801, ±SEM
[5] = 3 mg/kg against 0.05 mg/kg (s.c.) MK801, ±SEM
[6] = 10 mg/kg against 0.05 mg/kg (s.c.) MK801, ±SEM
[7] = evident at 0.025 mg/kg and 0.05 mg/kg, p<0.05
[8] = first series, MK801 0.01 mg/kg s.c.
[9] = first series, MK801 0.025 mg/kg s.c.
[10] = first series, MK801 0.05 mg/kg s.c.
[11] = second series, MK801 0.01 mg/kg s.c.
[12] = second series, MK801 0.025 mg/kg s.c.
[13] = second series, MK801 0.05 mg/kg s.c.
[14] = 0.05 mg/kg (s.c.) MK801 with 0 mg/kg desmethylclozapine, ±SEM
[15] = 0.05 mg/kg (s.c.) MK801 with 0 mg/kg xanomeline, ±SEM

## CCCCCCOc1nsnc1C1=CCCN(C)C1 [xanomeline]
Male Wistar rats [1]; 1 mg/kg i.p.
  number of anticipatory responses: 58.0 ± 7.9
  number of correct responses: 53.0 ± 2.4
  number of fault responses: 22.7 ± 1.6
  number of missed responses: 24.3 ± 2.4
  percentage of correct responses: 70.0 ± 2.1%
  persevering responses: 6.3 ± 1.1
  total number of responses: 75.1 ± 2.4
Male Wistar rats [1]; 3 mg/kg i.p.
  number of anticipatory responses: 60.8 ± 4.9
  number of correct responses: 51.2 ± 2.5
  number of fault responses: 21.7 ± 1.8
  number of missed responses: 27.2 ± 2.2
  percentage of correct responses: 70.2 ± 2.5%
  persevering responses: 6.7 ± 1.4
  total number of responses: 72.8 ± 2.2
Male Wistar rats [1]; 10 mg/kg i.p.
  number of anticipatory responses: 21.5 ± 6.4
  number of correct responses: 37.2 ± 2.6
  number of fault responses: 15.0 ± 1.8
  number of missed responses: 46.8 ± 3.7
  percentage of correct responses: 72.1 ± 2.3%
  persevering responses: 4.9 ± 0.9
  total number of responses: 53.2 ± 3.7
Male Wistar rats [1]
  effect on number of anticipatory responses: reduced
[2]; [4]
  % correct resp: 70.2 ± 3.8%
  nr anticipatory resp: 75.3 ± 10.5
  nr of correct resp: 58.7 ± 4.4
  nr of fault resp: 23.8 ± 2.4
  nr of missed resp: 17.6 ± 3.1
  persevering resp: 15.3 ± 2.5
  total nr of resp: 82.4 ± 3.1
[2]; [5]
  % correct resp: 71.6 ± 2.4%
  nr anticipatory resp: 99.3 ± 11.1
  nr of correct resp: 57.4 ± 2.7
  nr of fault resp: 22.7 ± 1.9
  nr of missed resp: 19.9 ± 2.4
  persevering resp: 14.1 ± 3.5
  total nr of resp: 80.1 ± 2.4
[2]; [6]
  % correct resp: 74.4 ± 2.8%
  nr anticipatory resp: 47.5 ± 8.4
  nr of correct resp: 50.9 ± 2.4
  nr of fault resp: 18.0 ± 2.2
  nr of missed resp: 31.1 ± 3.0
  persevering resp: 8.5 ± 1.1
  total nr of resp: 68.9 ± 3.0
[2]
  effect on increase in anticipatory responses induced by MK801: antagonize
  effect on increase in persevering responses induced by MK801: antagonize

## Clc1ccc2c(c1)N=C(N1CCNCC1)c1ccccc1N2 [desmethylclozapine]
Male Wistar rats [1]; 1 mg/kg i.p.
  number of anticipatory responses: 50.2 ± 4.9
  number of correct responses: 52.2 ± 3.2
  number of fault responses: 19.4 ± 2.2
  number of missed responses: 28.4 ± 3.2
  percentage of correct responses: 72.9 ± 3.1%
  persevering responses: 7.8 ± 1.4
  total number of responses: 71.6 ± 3.2
Male Wistar rats [1]; 3 mg/kg i.p.
  number of anticipatory responses: 51.3 ± 7.5
  number of correct responses: 51.9 ± 3.1
  number of fault responses: 20.1 ± 2.2
  number of missed responses: 28.0 ± 2.2
  percentage of correct responses: 71.9 ± 3.2%
  persevering responses: 8.8 ± 1.2
  total number of responses: 72.0 ± 2.2
Male Wistar rats [1]; 10 mg/kg i.p.
  number of anticipatory responses: 34.5 ± 3.9
  number of correct responses: 48.5 ± 3.9
  number of fault responses: 17.5 ± 2.0
  number of missed responses: 34.0 ± 2.9
  percentage of correct responses: 72.6 ± 3.6%
  persevering responses: 5.5 ± 0.9
  total number of responses: 66.0 ± 2.9
Male Wistar rats [1]
  effect on number of anticipatory responses: reduced
[2]; [4]
  % correct resp: 67.2 ± 2.6%
  nr anticipatory resp: 141.8 ± 20.8
  nr of correct resp: 52.5 ± 3.4
  nr of fault resp: 25.1 ± 1.9
  nr of missed resp: 22.4 ± 3.1
  persevering resp: 24.8 ± 2.8
  total nr of resp: 77.6 ± 3.1
[2]; [5]
  % correct resp: 69.6 ± 2.6%
  nr anticipatory resp: 104.3 ± 18.4
  nr of correct resp: 55.2 ± 2.8
  nr of fault resp: 24.4 ± 2.4
  nr of missed resp: 20.4 ± 3.6
  persevering resp: 16.3 ± 2.1
  total nr of resp: 79.6 ± 3.6
[2]; [6]
  % correct resp: 70.1 ± 3.1%
  nr anticipatory resp: 78.6 ± 14.5
  nr of correct resp: 52.7 ± 3.9
  nr of fault resp: 21.6 ± 2.0
  nr of missed resp: 25.8 ± 3.7
  persevering resp: 17.3 ± 3.4
  total nr of resp: 74.3 ± 3.7
[2]
  effect on increase in anticipatory responses induced by MK801: antagonize
  effect on increase in persevering responses induced by MK801: antagonize

## CC12NC(Cc3ccccc31)c1ccccc12 (centres unmarked) [MK801, dizocilpine]
Male Wistar rats [3]; [7]
  effect on missed responses: decreased
  effect on number of anticipatory responses: boosted
  effect on persevering responses: boosted
  effect on total number of responses: boosted
Male Wistar rats [3]; [8]
  number of anticipatory responses: 51.3 ± 5.4
  number of correct responses: 52.6 ± 3.3
  number of fault responses: 19.8 ± 2.2
  number of missed responses: 27.7 ± 3.3
  percentage of correct responses: 72.6 ± 2.8%
  persevering responses: 7.9 ± 1
  total number of responses: 72.3 ± 3.3
Male Wistar rats [3]; [9]
  number of anticipatory responses: 73.2 ± 8.7
  number of correct responses: 53.8 ± 3.9
  number of fault responses: 22.6 ± 2.7
  number of missed responses: 23.6 ± 2.9
  percentage of correct responses: 70.0 ± 3.7%
  persevering responses: 17.7 ± 4.1
  total number of responses: 76.4 ± 2.9
Male Wistar rats [3]; [10]
  number of anticipatory responses: 148.6 ± 38.6
  number of correct responses: 55.3 ± 3.2^
  number of fault responses: 26.0 ± 2.7^
  number of missed responses: 18.7 ± 3.1
  percentage of correct responses: 68.0 ± 3%
  persevering responses: 28.2 ± 4.7
  total number of responses: 81.3 ± 3.1
Male Wistar rats [3]; [11]
  number of anticipatory responses: 78.1 ± 14.8
  number of correct responses: 60.8 ± 2.1
  number of fault responses: 21.8 ± 2.1
  number of missed responses: 17.5 ± 2.1
  percentage of correct responses: 73.8 ± 2.3%
  persevering responses: 11.1 ± 3.1
  total number of responses: 82.5 ± 2.1
Male Wistar rats [3]; [12]
  number of anticipatory responses: 97.3 ± 16.2
  number of correct responses: 62.7 ± 2.9
  number of fault responses: 21.8 ± 1.9
  number of missed responses: 15.6 ± 1.9
  percentage of correct responses: 74.0 ± 2.5%
  persevering responses: 10.7 ± 1.7
  total number of responses: 84.4 ± 1.9
Male Wistar rats [3]; [13]
  number of anticipatory responses: 148.3 ± 29.8
  number of correct responses: 62.3 ± 2.9^
  number of fault responses: 23.3 ± 2.3^
  number of missed responses: 14.5 ± 1.8
  percentage of correct responses: 72.7 ± 2.6^ %
  persevering responses: 18.8 ± 4.2
  total number of responses: 85.5 ± 1.8
Male Wistar rats [3]; summary of table 1
  effect on numbers of correct responses: does not influence
  effect on numbers of fault responses: does not influence
[2]; [14]
  % correct responses: 66.2 ± 3.8%
  nr anticipatory resp: 116.8 ± 19.9
  nr of correct resp: 53.8 ± 4.4
  nr of fault resp: 25.9 ± 2.1
  nr of missed resp: 20.3 ± 3.7
  persevering resp: 20.2 ± 3.2
  total nr of resp: 79.7 ± 3.7
[2]; [15]
  % correct resp: 66.9 ± 3.5%
  nr anticipatory resp: 133.8 ± 23.5
  nr of correct resp: 53.3 ± 3.9
  nr of fault resp: 25.9 ± 2.7
  nr of missed resp: 20.8 ± 3.4
  persevering resp: 16.9 ± 2.6
  total nr of resp: 79.3 ± 3.4
